# Reference: PubChem BioAssay AID1996
# Details: buffer; pH 7.4; 200.0 µM
row,SMILES,solubility kinetic [µg/mL]
1,Cc1ccc(C)n1CCN1CCN(S(=O)(=O)c2ccc(F)cc2F)CC1,26.1
2,COc1ccc(CNCc2cccc(C)c2)cc1.O=C(O)C(=O)O,> 49.7
3,CC(C)Cc1ccc(C(C)C(=O)Nc2ncccn2)cc1 (stereo not given),35.9
4,Cc1ccc(NC(=O)Cn2ccc(=O)[nH]c2=O)cc1,> 38.9
5,OCCCc1nc2ccccc2n1Cc1ccccc1,> 40
6,Cc1cc(=O)[nH]c(Nc2cccc(F)c2)n1,> 32.9
7,CCS(=O)(=O)c1ncc(Cl)c(C(=O)Nc2ccccc2OC)n1,0.3
8,O=C1CSC(c2ccccc2)N1c1ccc([N+](=O)[O-])cc1 (stereo not given),33.4
9,O=C(Nc1ncccn1)C1CCCCC1,> 30.8
10,O=C(NCCCn1ccnc1)c1ccc(OCC(F)(F)F)cc1,43.4
11,CCn1c(=O)c(C(=O)NCc2ccc3c(c2)OCO3)c(O)c2ccccc21,< 0.4
12,COc1ccc2cc3cc(C(=O)NCCC(C)C)oc3nc2c1,< 0.3
13,Cc1cccc(NC(=O)Nc2c(C)[nH]c(=O)[nH]c2=O)c1C,5.2
14,Cc1cc(C(=O)Nc2ccon2)c(C)o1,> 30.9
15,O=C(NCCCO)c1c(O)c2cccc3c2n(c1=O)CCC3,> 45.3
16,Cc1cccc(OCCCN2C(=O)C(=O)c3cc(C)ccc32)c1,10.7
17,CCN(CC)c1ccc(/C=N/O)cc1,> 28.8
18,Cc1ccc2c(COC(=O)CNC(=O)c3ccco3)cc(=O)oc2c1C,13.1
19,CN1C2CCC1CC(NC(=O)c1ccc(Cl)cc1)C2 (stereo not given),> 41.8
20,CCc1ccccc1NC(=O)CCN1C(=O)C2C3CCC(C3)C2C1=O (stereo not given),43
21,COc1ccc(-c2c(=O)n(OC)c3ccccc3[n+]2[O-])cc1OC,> 49.2
22,CCOC(=O)N1CCN(C(=O)CCc2ccc(S(=O)(=O)NCC(C)C)cc2)CC1,59.6
23,Cc1ccc(C(=O)CCC(=O)Nc2ncccc2C)cc1,> 42.4
24,COCC(=O)Nc1cc(Cl)ccc1C,> 32

row,SMILES,solubility kinetic [µg/mL]
1,CN1CN(C)c2ccc([N+](=O)[O-])c3cccc1c23,2.1
2,CN1CCN(S(=O)(=O)c2ccc(Cl)s2)CC1,> 42.1
3,O=C(NCc1ccco1)C(=O)c1cn(CC(=O)N2CCCCCC2)c2ccccc12,14.3
4,Cc1occc1C(=O)Nc1sccc1C(N)=O,10.7
5,COc1ccc(Cl)cc1NC(=O)CN(C)C(=O)c1cccc2cccnc12,48.5
6,c1csc(-c2noc(CN3CCN4CCCC4C3)n2)c1 (stereo not given),> 43.6
7,O=C(COC(=O)c1ccc([N+](=O)[O-])o1)NC1CCCc2ccccc21 (stereo not given),26.3
8,C/C(=C\C(=O)c1ccc(Cl)s1)N(C)C,> 34.5
9,COc1ccc(NC(=O)CN(C)C(=O)CC2CCCCC2)cc1,> 47.8
10,CCCC(CCC)C(=O)Nc1cccc(-c2cn3c(n2)SCC3)c1,4
11,Cc1onc(-c2ccccc2Cl)c1NC(=O)NCc1cccs1,42.6
12,CN(CC1COc2ccccc2O1)C(=O)c1ccc(N(C)C)cc1 (stereo not given),> 49
13,COc1cc(C(=O)O)ccc1OCc1ccncc1,> 38.9
14,Cc1ccc(S(=O)(=O)N2CCOCC2)cc1C(=O)OCC(=O)c1c(N)n(C)c(=O)n(C)c1=O,38.9
15,Fc1cccc(Cl)c1/C=C/c1cnc2ccccc2n1,< 0.3
16,CC12CCC(C(=O)N3CCOCC3)([C@H](Br)C1=O)C2(C)C (stereo not given in full),> 51.6
17,O=C(NCCc1ccccc1)c1cccc(N2C(=O)C3CC=CCC3C2=O)c1 (stereo not given),47.2
18,CCc1ccc(S(=O)(=O)Nc2ccc(N3CCN(C)CC3)cc2)cc1,50.8
19,CCC(C)NC(=O)c1ccc(CN2CCc3ccccc3C2)cc1 (stereo not given),7.1
20,CNC(=O)c1sc(-c2ccccn2)nc1C,> 35
21,CC1=NOC(=O)/C1=C/c1ccc2c(c1)OCO2,25.1
22,CC1=NN(c2ccccc2)C(=O)C1/C=C1\NC(=S)NC1=O (stereo not given),> 45.1
23,O=S(=O)(Cc1noc(-c2ccc(OC(F)(F)F)cc2)n1)c1ccc(F)cc1,< 0.4
24,O=C(COC(=O)c1cc(Cl)nc(Cl)c1)NCCc1ccc(F)cc1,> 55.7

row,SMILES,solubility kinetic [µg/mL]
1,Cn1c(SCc2c(F)cccc2Cl)nc2c(c1=O)SCC2,6.1
2,COC(=O)CSc1nccc(-c2ccc(F)cc2)c1C#N,< 0.3
3,Cc1cc(C)n2nc(SCC(=O)Nc3ccc(F)cc3[N+](=O)[O-])nc2n1,> 56.5
4,S=C(Nc1ccccc1Cl)NC1CCCCCC1,22
5,CN(C)C(CNC(=O)c1cc2ccccc2o1)c1ccco1 (stereo not given),> 44.8
6,O=C(c1cc(=O)[nH]c2ccccc12)N1CCN(c2ccccc2)CC1,> 50
7,Cc1ccc2[nH]c(C)c(CCNCc3cccnc3)c2c1.Cl,47.1
8,CCOC(=O)c1ccc(NC(=O)N2CCOCC2)cc1,> 41.7
9,Cc1ccc(NC(=O)CNC(=O)c2cccs2)c(O)c1,21.7
10,Cc1cccc(NC(=O)C2C3CCCCC32)c1 (stereo not given),3
11,CC1CCCC(NC(=O)COC(=O)CCC(=O)c2cccs2)C1C (stereo not given),> 52.7
12,Cc1ccc([N+](=O)[O-])cc1S(=O)(=O)NCCc1cn2ccccc2n1,35
13,CC(C)(C)c1csc(NC(=O)c2ccccc2O)n1,9.3
14,Cc1cc(C(=O)NC(Cc2ccccc2)C(=O)O)c(C)o1 (stereo not given),> 43.1
15,COc1ccc(CC(=O)NC(CC(=O)O)c2cccc([N+](=O)[O-])c2)cc1 (stereo not given),> 53.8
16,O=C1CSC(=S)N1c1cccc(F)c1,1
17,Cc1ccccc1COC(=O)c1cc([N+](=O)[O-])ccc1N1CCOCC1,5.8
18,CCOc1ccc(-n2c(-c3cccs3)nc3ccccc3c2=O)cc1,0.5
19,C(CNC1C2CC3CC(C2)CC1C3)CN1CCOCC1.Cl (stereo not given),> 52.7
20,Cc1cc(C)n(C)c(=O)c1C#N,> 24.3
21,Cc1sc2ncnc(SCC(=O)NC3CCCC3)c2c1C,5.2
22,Cc1nccn1-c1c([N+](=O)[O-])c(=O)n(C)c2ccccc12,> 42.6
23,COc1cc2ccccc2cc1C(=O)Nc1ccc2oc(=O)ccc2c1,< 0.7
24,CC1(C)Nc2ccccc2C(=O)N1c1ccc(Br)cc1,12.1

row,SMILES,solubility kinetic [µg/mL]
1,O=C(O)c1cccnc1SCc1cccc(Cl)c1,41.5
2,CC(C)Cc1ccc(/C=C/C(=O)N2CCOCC2)cc1,> 41
3,CCOC(=O)c1csc(NC(=O)CN2CCOCC2)n1,> 44.9
4,COCCn1c(N)c(Sc2ccc(Cl)cc2)c(=O)[nH]c1=O,47.4
5,O=c1sc2ccccc2c(N2CCCC2)c1[N+](=O)[O-],> 41.4
6,Cc1nc(SCC(=O)Nc2ccccc2Cl)oc1C,> 44.5
7,O=C(Nc1cccnc1)c1ccc2ccccc2c1O,36.9
8,C/C(=N\OC(=O)Nc1ccccc1)c1ccc(C)cc1,15
9,CCN=C(NCC)SC1CC(=O)N(CCc2ccccc2)C1=O (stereo not given),36.3
10,Cc1nc(-c2ccc(Cl)cc2)sc1C(=O)O,33.2
11,CCOC(=O)C1CNc2cc(S(=O)(=O)CC)ccc2O1 (stereo not given),> 44.9
12,Cc1cc(C)c(S(=O)(=O)NC2CC3CCC2C3)c(C)c1 (stereo not given),< 0.6
13,CCc1ccc(NCc2ccc(OC)c(Cn3ccnc3)c2)cc1,40.2
14,O=C(CSc1nnc(-c2ccco2)o1)Nc1ccccc1Cl,> 50.4
15,CCCSc1nsc(NC(=O)c2cccnc2OCC)n1,0.5
16,COc1cc(C(NC=O)C(=O)Nc2c(C)cccc2C)ccc1O (stereo not given),45.4
17,O=C(CCc1c[nH]c2ccccc12)NCCc1ccccc1,28.5
18,COc1cc(S(=O)(=O)N2CCOCC2)ccc1NC(=O)COC(=O)/C=C/c1cc(OC)c(OC)c(OC)c1,4.6
19,CCNS(=O)(=O)c1ccc(CCC(=O)NCc2cccnc2)cc1,35.6
20,CCc1ccc(S(=O)(=O)Nc2ccc(Br)cn2)cc1,18.1
21,O=C(OCC(=O)N1CCCC1)c1c[nH]c2ccccc12,> 40.8
22,CC(C)Oc1ccc(CNC(=S)Nc2ccccc2)cc1Cl,7.2
23,O=C(NC(=S)N1CCCC1)c1cccc([N+](=O)[O-])c1,39.5
24,CCOc1ccc(NC(=O)CCNC(=O)c2ccco2)cc1,> 45.3

row,SMILES,solubility kinetic [µg/mL]
1,Cc1csc(SCC(=O)N(C)C2CCS(=O)(=O)C2)n1 (stereo not given),> 48.1
2,CCOc1ccc(-n2c(C)c(C(=O)OC)c3cc(O)ccc32)cc1,< 0.7
3,CCOc1ccccc1NC(=O)c1ccc2c(c1)C(=O)N(CC(C)C)C2=O,< 0.4
4,N#Cc1cccc(NC(=O)CNC(=O)Cc2ccccc2)c1,42.1
5,CN(C)C(=S)NC(=O)C12CC3CC(C)(CC(C)(C3)C1)C2,27.4
6,COc1ccc(OCC(O)CNC(=O)Nc2cc(F)ccc2C)cc1 (stereo not given),17.2
7,O=S(=O)(NC(=S)c1ccccc1)c1ccc(F)cc1,> 44.3
8,Nc1c(C(=O)OCC(=O)Nc2ccccc2Br)[nH]c(=O)[nH]c1=O,25.6
9,O=C(Nc1ccc(Br)cc1)Nc1cnccn1,3
10,O=C(CNC(=O)C1CCCCC1)OCC(=O)c1cccc(Cl)c1,46.8
11,Nc1cc(=O)[nH]c(SCC(=O)Nc2cc(Cl)ccc2Cl)n1,3.5
12,Cc1cccc(Nc2nc(-c3ccccc3)cs2)n1,0.3
13,Cc1cccc(-n2c(C)nc3ccc(Cl)cc3c2=O)c1,22.1
14,COc1cc(NC(=O)N[C@@H](CCSC)C(=O)O)cc(OC)c1,> 49.3
15,COc1cc(C)nc(-c2csc(C)n2)n1,28.6
16,COc1ccc(NC(=O)c2ccco2)cc1NC(=O)c1ccccc1,4.9
17,COc1ccccc1CCC(=O)NNC(=O)c1ccccc1,> 44.8
18,O=C(COC(=O)c1cccs1)Nc1ccc(F)c(F)c1,24.9
19,COc1cc(NC(=O)CCN2CCN(C)CC2)cc(OC)c1,> 46.1
20,O=C(NCCOc1ccccc1F)C1CC(=O)N(Cc2ccccc2)C1 (stereo not given),> 53.5
21,O=[N+]([O-])c1ccc2nc(-c3ccncc3)[nH]c2c1,8
22,CCOc1cc(C(F)(F)F)cnc1/C(N)=N/O,36.9
23,N#Cc1ccc(-c2cccnc2)nc1SCC(N)=O,38.2
24,O=C(CNC(=O)c1ccncc1)N/N=C/c1ccc(Br)cc1,> 54.2
